# Reference: ChEMBL document CHEMBL2311461, “Linear and cyclic glycopeptide as HIV protease inhibitors” (Eur J Med Chem, 2013)
# pIC50: −log10 of the molar value.
# Test: Inhibition of C-south african HIV-1 protease assessed as hydrolysis of the chromogenic peptide substrate Lys-Ala-Arg-Val-Nle-p-nitro-Phe-Glu-Ala-Nle-NH2
# Parameters: species or system Human immunodeficiency virus 1
row,Structure (SMILES),pIC50
1,CC[C@H](C)[C@@H]1NC(=O)[C@H](C)NC(=O)[C@H](CCC(=O)O)NC(=O)C[C@@H](C2O[C@@H]3OC(C)(C)O[C@@H]3[C@H]2O)NC1=O (some centres not stated),5.58
2,CC[C@H](C)[C@H](NC(=O)[C@H](C)NC(=O)C[C@H](NCc1ccccc1)C1O[C@@H]2OC(C)(C)O[C@@H]2[C@H]1OCc1ccccc1)C(=O)N[C@@H](COCc1ccccc1)C(=O)O (some centres not stated),< 5.00
3,CC[C@H](C)[C@H](NC(=O)[C@H](C)NC(=O)[C@H](CCC(=O)OCc1ccccc1)NC(=O)C[C@H](N)C1O[C@@H]2OC(C)(C)O[C@@H]2[C@H]1OCc1ccccc1)C(=O)O (some centres not stated),5.46
4,CC[C@H](C)[C@H](NC(=O)[C@H](C)NC(=O)[C@H](CCC(=O)OCc1ccccc1)NC(=O)C[C@H](NCc1ccccc1)C1O[C@@H]2OC(C)(C)O[C@@H]2[C@H]1OCc1ccccc1)C(=O)O (some centres not stated),5.30
5,Cc1cccc(C)c1OCC(=O)N[C@@H](Cc1ccccc1)[C@@H](O)C[C@H](Cc1ccccc1)NC(=O)[C@H](C(C)C)N1CCCNC1=O [LOPINAVIR],7.60
6,CC[C@H](C)[C@@H]1NC(=O)[C@H](C)NC(=O)C[C@@H](C2O[C@@H]3OC(C)(C)O[C@@H]3[C@H]2O)NC(=O)[C@H](CO)NC1=O (some centres not stated),5.52
7,CC[C@H](C)[C@H](NC(=O)[C@H](C)NC(=O)[C@H](CCC(=O)O)NC(=O)C[C@H](N)C1O[C@@H]2OC(C)(C)O[C@@H]2[C@H]1O)C(=O)O (some centres not stated),5.52
8,CC(C)[C@@H]1NC(=O)[C@H](Cc2ccccc2)NC(=O)C[C@@H](C2O[C@@H]3OC(C)(C)O[C@@H]3[C@H]2O)NC(=O)[C@H](C)NC1=O (some centres not stated),6.02
9,CC[C@H](C)[C@H](NC(=O)[C@H](C)NC(=O)C[C@H](N)C1O[C@@H]2OC(C)(C)O[C@@H]2[C@H]1O)C(=O)N[C@@H](CO)C(=O)O (some centres not stated),5.82
10,CC(C)[C@H](NC(=O)[C@H](Cc1ccccc1)NC(=O)C[C@H](NCc1ccccc1)C1O[C@@H]2OC(C)(C)O[C@@H]2[C@H]1OCc1ccccc1)C(=O)N[C@@H](C)C(=O)O (some centres not stated),5.62
11,CC(C)[C@H](NC(=O)[C@H](Cc1ccccc1)NC(=O)C[C@H](N)C1O[C@@H]2OC(C)(C)O[C@@H]2[C@H]1OCc1ccccc1)C(=O)N[C@@H](C)C(=O)O (some centres not stated),5.87

# Further lines, results first:
row,pIC50,Structure (SMILES)
1,< 5.00,CC[C@H](C)[C@H](NC(=O)[C@H](C)NC(=O)C[C@H](N)C1O[C@@H]2OC(C)(C)O[C@@H]2[C@H]1OCc1ccccc1)C(=O)N[C@@H](COCc1ccccc1)C(=O)O (some centres not stated)
2,5.60,CC[C@H](C)[C@@H]1NC(=O)[C@H](C)NC(=O)[C@H](CCC(=O)OCc2ccccc2)NC(=O)C[C@@H](C2O[C@@H]3OC(C)(C)O[C@@H]3[C@H]2OCc2ccccc2)NC1=O (some centres not stated)
3,< 5.00,CC[C@H](C)[C@@H]1NC(=O)[C@H](C)NC(=O)C[C@@H](C2O[C@@H]3OC(C)(C)O[C@@H]3[C@H]2OCc2ccccc2)NC(=O)[C@H](COCc2ccccc2)NC1=O (some centres not stated)
4,5.96,CC(C)[C@H](NC(=O)[C@H](Cc1ccccc1)NC(=O)C[C@H](N)C1O[C@@H]2OC(C)(C)O[C@@H]2[C@H]1O)C(=O)N[C@@H](C)C(=O)O (some centres not stated)
5,8.40,COC(=O)N[C@H](C(=O)N[C@@H](Cc1ccccc1)[C@@H](O)CN(Cc1ccc(-c2ccccn2)cc1)NC(=O)[C@@H](NC(=O)OC)C(C)(C)C)C(C)(C)C [ATAZANAVIR]
6,5.19,CC(C)[C@@H]1NC(=O)[C@H](Cc2ccccc2)NC(=O)C[C@@H](C2O[C@@H]3OC(C)(C)O[C@@H]3[C@H]2OCc2ccccc2)NC(=O)[C@H](C)NC1=O (some centres not stated)
